Measurements as given in patent publication US20220324862A1, “PYRIDOPYRIMIDINONE COMPOUNDS” (Acerand Therapeutics (USA) Limited, priority 2021, published 2022).

System: cellular pERK in NCI-H1975 cells (EGFR/L858R-T790M)
Test: pERK Potency Assay
Assay type: cell-based
Conditions: Homo sapiens, 1 hour incubation, Western blot, read-out: IC50 value, cellular pERK level
Description: The purpose of this assay is to measure the ability of test compounds to inhibit SOS1 function in cells. SOS1 activates RAS proteins by catalyzing the conversion of RAS-GDP to RAS-GTP in response to receptor tyrosine kinase activation. Activation of RAS induces a sequence of cellular signaling events that results in increased phosphorylation of ERK at Threonine 202 and Tyrosine 204 (pERK). The procedure described below measured the level of cellular pERK in response to test compounds in NCI-H1975 cells (EGFR/L858R-T790M).
NCI-H1975 cells were grown and maintained using media and procedures recommended by the ATCC. On the day prior to compound addition, cells were plated in 24-well cell culture plates (0.9 ml/well) and grown overnight in a 37° C., 5% CO2 incubator. Test compounds were prepared with 3-fold serial dilutions in DMSO, with a top concentration of 10 mM. On the day of the assay, 100 uL of each test compound diluted at 1:100 in media was added to each well of cell culture plate with final concentrations of the compound spanning 0.5 nM to 10 uM. After the compound was added, the cells were incubated for 1 hour at 37° C., 5% CO2. Following incubation, culture medium was removed, and the cells were washed once with phosphate buffered saline and lysed with lysis buffer (20 mM Tris-HCl, pH 7.5, 150 mM NaCl, 1 mM EDTA, 1 mM EGTA, 0.8% NP-40 plus 2× protease and phosphatase inhibitors). Cellular pERK level was determined using the Western blot analysis and quantified with Liqor software. Signal from Western blot was plotted and IC50 values were determined by fitting a 4-parameter sigmoidal concentration response model.

| Structure (SMILES) | IC50 [nM] |
| --- | --- |
| C#C[C@@H](Nc1nc(C)nc2c1cc(C1(F)CCN(C(C)=O)CC1)c(=O)n2C)c1cccc(C(F)(F)F)c1C [Compound 56, 6-(1-acetyl-4-fluoropiperidin-4-yl)-2,8-dimethyl-4-{[(1R)-1-[2-methyl-3-(trifluoromethyl)phenyl]prop-2-yn-1-yl]amino}-7H,8H-pyrido[2,3-d]pyrimidin-7-one] | < 100 |
| C#C[C@@H](Nc1nc(C)nc2cc(=O)n(C3CCOCC3)cc12)c1cccc(C(F)(F)F)c1C [Compound 4, (R)-2-methyl-4-((1-(2-methyl-3-(trifluoromethyl)phenyl)prop-2-yn-1-yl)amino)-6-(tetrahydro-2H-pyran-4-yl)pyrido[4,3-d]pyrimidin-7(6H)-one] | < 100 |
| C#C[C@@H](Nc1nc(C)nc2c1cc(C1(O)CCN(C(C)=O)CC1)c(=O)n2C)c1cccc(C(F)(F)F)c1C [Compound 54, 6-(1-acetyl-4-hydroxypiperidin-4-yl)-2,8-dimethyl-4-{[(1R)-1-[2-methyl-3-(trifluoromethyl)phenyl]prop-2-yn-1-yl]amino}-7H,8H-pyrido[2,3-d]pyrimidin-7-one] | < 100 |
| C#C[C@@H](Nc1ncnc2c1cc(C1(NC(C)=O)CCOCC1)c(=O)n2C)c1cccc(C(F)(F)F)c1C [Compound 58, (R)-N-(4-(8-methy-4-((1-(2-methyl-3-(trifluoromethyl)phenyl)prop-2-yn-1-yl}amino)-7-oxo-7,8-dihydropyrido[2,3-d]pyrimidin-6-yl)tetrahydro-2H-pyran-4-yl)acetamide] | < 100 |
| C#C[C@@H](Nc1nc(C)nc2cc(=O)n(C3(C(F)F)CC3)cc12)c1cccc(C(F)(F)F)c1C [Compound 9, (R)-6-(1-(difluoromethyl)cyclopropyl)-2-methyl-4-((1-(2-methyl-3-(trifluoromethyl)phenyl)prop-2-yn-1-yl)amino)pyrido[4,3-d]pyrimidin-7(6H)-one] | 100 to 500 |

Further lines, results first:

| IC50 [nM] | Structure (SMILES) |
| --- | --- |
| < 100 | C#C[C@@H](Nc1ncnc2c1cc(C1(O)CCN(C(C)=O)C1)c(=O)n2C)c1cccc(C(F)F)c1F (stereo partly drawn) [Compound 43, 6-(1-acetyl-3-hydroxypyrrolidin-3-yl)-4-{[(1R)-1-[3-(difluoromethyl)-2-fluorophenyl]prop-2-yn-1-yl]amino}-8-methyl-7H,8H-pyrido[2,3-d]pyrimidin-7-one] |
| < 100 | C#C[C@@H](Nc1ncnc2c1cc(C1(O)CCN(C(C)=O)CC1)c(=O)n2C)c1cccc(C(F)F)c1F [Compound 46, 6-(1-acetyl-4-hydroxypiperidin-4-yl)-4-{[(1R)-1-[3-(difluoromethyl)-2-fluorophenyl]prop-2-yn-1-yl]amino}-8-methyl-7H,8H-pyrido[2,3-d]pyrimidin-7-one] |
| < 100 | C#C[C@@H](Nc1ncnc2c1cc(C1(OC)CCN(C(C)=O)CC1)c(=O)n2C)c1cccc(C(F)F)c1F [Compound 48, (R)-6-(1-acetyl-4-methoxypiperidin-4-yl)-4-((1-(3-(difluoromethyl)-2-fluorophenyl)prop-2-yn-1-yl)amino)-8-methylpyrido[2,3-d]pyrimidin-7(8H)-one] |
| < 100 | C#C[C@@H](Nc1ncnc2c1cc(C1(NC(C)=O)CCN(C(C)=O)CC1)c(=O)n2C)c1cccc(C(F)(F)F)c1C [Compound 57, (R)-N-(1-acetyl-4-(8-methy-4-((1-(2-methyl-3-(trifluoromethyl)phenyl)prop-2-yn-1-yl)amino)-7-oxo-7,8-dihydropyrido[2,3-d]pyrimidin-6-yl)piperidin-4-yl)acetamide] |
| < 100 | C#C[C@@H](Nc1nc(C)nc2c1cc(C1(OC)CCN(C(C)=O)CC1)c(=O)n2C)c1cccc(C(F)(F)F)c1C [Compound 55, 6-(1-acetyl-4-methoxypiperidin-4-yl)-2,8-dimethyl-4-{[(1R)-1-[2-methyl-3-(trifluoromethyl)phenyl]prop-2-yn-1-yl]amino}-7H,8H-pyrido[2,3-d]pyrimidin-7-one] |
| < 100 | C#C[C@@H](Nc1ncnc2c1cc(C1(OC)CCN(C(C)=O)C1)c(=O)n2C)c1cccc(C(F)F)c1F (stereo partly drawn) [Compound 49, 6-(1-acetyl-3-methoxypyrrolidin-3-yl)-4-{[(1R)-1-[3-(difluoromethyl)-2-fluorophenyl]prop-2-yn-1-yl]amino}-8-methyl-7H,8H-pyrido[2,3-d]pyrimidin-7-one] |
